From patent US9550078B2, “EDAR ligand derived peptides and use thereof” (CAREGEN CO., LTD., priority 2011, dated 2017)
Where no end group is shown, it is not given here.

Tests used:
Format in all cases: cell-based
[1] = test system: NF-κB; assay: Western blot of NF-κB translocation into nucleus; conditions: HaCaT keratinocytes, 20 min
Description: (§1) HaCaT kerationcytes were incubated with the peptides synthesized in preparation Example 1 for 20 min. The translocation of NF-κB into nucleus through the phosphorylation of IκB was examined as a representative signaling of EDA protein. The respective effect was measured by Western blot analysis using an antibody against IκB and NF-κB (SantaCruz, USA). The effect of IκB degradation through phosphorylation and uniquitination in a concentration dependent manner of the treated peptides of this invention was confirmed (FIGS. 3a and 3b). Furthermore, the activation and nucleus translocation of NF-κB was also observed after degradation of IκB (FIGS. 4a and 4b). […] The expression levels of the above mentioned proteins of IL-1b, IL-6, and COX-2 were increased with the translocations of NF-κB into nucleus which is induced by the treatments of the peptides.

[2] = test system: IκB; assay: Western blot of IκB degradation (EDA1-EDAR signal); conditions: HaCaT keratinocytes, 20 min
Description: as §1

[3] = test system: IL-1b, IL-6, and COX-2; assay: RT-PCR of NF-κB-induced genes; conditions: HaCaT keratinocytes
Description: as §1

[4] = test system: Shh protein; assay: Western blot of Shh protein expression; conditions: keratinocytes, 10 μg/ml, 24 hr
Description: To verify whether the peptides synthesized in preparation Example 1 enhances the expression of Shh protein which is known as EDA1 target molecule and to stimulate the hair follicle, kerationcytes (3×10^5 cells) was added to each well of 96-well plates and cultured under 5% CO2 for 24 hr at 37° C. After 24-hr culture, the medium was changed with a fresh medium without serum and cells were treated with empty sample (for normalization) and peptides synthesized aseptically dissolved in distilled water with the concentration of 10 μg/ml and cultured for 24 hr under the same conditions as described above. After that, the cell culture was collected and the expression level of Shh was measured through Western blotting using the specific antibody to Shh protein.

[5] = test system: NIH3T3 fibroblasts; assay: SRB colorimetric assay of cell growth; conditions: 1, 10 and 50 μg/ml, 72 hr, absorbance at 590 nm
Description: In order to evaluate three peptides prepared in Preparation Example 1 whether they have similar activities of growth factor, SRB (Sulforhodamine B; Sigma-Aldrich) colorimetric assay was carried out using HaCaT kerationcytes (Korean Cell Line Bank) and NIH3T3 fibroblasts (Korean Cell Line Bank) according to Rizzino et al. method (Rizzino, et al. Cancer Res., 48: 4266 (1988)).
HaCaT ketatinocytes and NIH3T3 fibroblasts were cultured in 250 ml-flasks containing EMEM (Eagle's minimal essential media; Gibco, USA) supplemented with 10% FBS (fetal bovine serum; Sigma). Cells cultured were treated with 1% trypsin solution to detach cells from the bottom of culture flasks and centrifuged to collect cell pellets. After cells were resuspended in EMEM not containing FBS, its aliquot (3×10^3 cells) was added to each well of 96-well plates and cultured under 5% CO2 for 24 hr at 37° C. After 24-hr culture, the medium was changed with a fresh medium without serum and cells were incubated with empty sample (for normalization) and peptides synthesized aseptically dissolved in […] distilled water with the respective concentrations of 1 μg/ml, 10 μg/ml and 50 μg/ml for 72 hr under the same conditions as described above. After removing supernatants, cells were fixed with ethanol and then washed three times using PBS (phosphate buffered saline), followed by incubation with SRB solution. Cells were sufficiently washed with 1% acetic acid and observed under a microscope to find living cell condition. In addition, absorbance at 590 nm was measured to analyze cell viability.

With LLADTTHHRPWT [compound 2] the “translocation of NF-κB into nucleus” value [1] was “translocation of NF-κB into nucleus after activation”, the “cellular amount of IκB protein (degradation through phosphorylation and ubiquitination)” value [2] was “reduced” and the “expression of COX-2, IL-6, IL-1b” value [3] was “remarkably enhanced”. The “expression of Shh protein” value [4] was “remarkably enhanced”, the growth of fibroblasts [5] was “notably increases” and the growth of fibroblasts ([5]; listed as SEQ ID NO:2) was “stimulatory effect”.

NMSKHTTFFGA was tested, and the “translocation of NF-κB into nucleus” value [1] was “translocation of NF-κB into nucleus after activation”, the “cellular amount of IκB protein (degradation through phosphorylation and ubiquitination)” value [2] was “reduced” and the “expression of COX-2, IL-6, IL-1b” value [3] was “remarkably enhanced”. For the same sequence, the “expression of Shh protein” value [4] was “remarkably enhanced”, the growth of fibroblasts [5] was “notably increases” and the growth of fibroblasts ([5]; listed as SEQ ID NO:1) was “stimulatory effect”.
